Measurements as given in US20200375987A1, “METALLO-BETA-LACTAMASE INHIBITORS AND METHODS OF USE THEREOF” (priority 2018, published 2020).
Converted amounts (≈) assume the structure as drawn.

What was measured:
[1] = test system: Pseudomonas aeruginosa MB5890 Trans pFlp-Vim2 plasmid (efflux−); format: cell-based; settings: MB 5890 Trans pFlp-Vim2 plasmid, OprD+
[2] = test system: Pseudomonas aeruginosa MB9799 (MB5890 Trans IMP1 plasmid, efflux−); format: cell-based; settings: MB 5890 Trans IMP1 plasmid (MB 9799), OprD+
Description: (§1) The strain background is Pseudomonas aeruginosa PAO1. A wild-type (MB5919) and an isogenic strain in which multiple efflux pumps have been disrupted genetically were used. The MBL IMP-1, obtained from a clinical isolate was introduced into the strain pair by the following process:
(§2) Plasmid DNA (encoding IMP-1) was extracted from CL 5673 (IMP-1, P. aeruginosa clinical strain) by standard techniques. The plasmid DNA was transformed into parental MB5919 (oprD+, efflux+, inducible AmpC) and MB5890 (oprD+, efflux−, inducible AmpC) isogenic strains by electroporation. These transformed strains were plated onto cation-adjusted Muller-Hinton agar plates containing ceftazidime at 32 μg/mL (MB5919) and 16 μg/mL (MB5890) to select for those cells in which the IMP-1-expressing plasmid was introduced successfully, resulting in resistance to ceftazidime.
(§3) Minimum inhibitory concentrations of sentinel antibiotics were performed to quality control the new strains.

[3] = test system: Pseudomonas aeruginosa PAO1 MB5919 (oprD+, efflux+); format: cell-based
Description: as §1, §2, §3

[4] = test system: Pseudomonas aeruginosa MB5890 (oprD+, efflux−); format: cell-based; settings: MB 5890, OprD+
Description: as §1, §2, §3

[5] = test system: Pseudomonas aeruginosa MB9798 (MB5919 Trans IMP1 plasmid, efflux+); format: cell-based; settings: MB5919 Trans IMP1 plasmid (MB 9798), OprD+
Description: as §1, §2, §3

[6] = test system: Pseudomonas aeruginosa MB5919 Trans pFlp-Vim2 plasmid (efflux+); format: cell-based; settings: MB 5919 Trans pFlp-Vim2 plasmid, OprD+
[7] = test system: Pseudomonas aeruginosa MB9861 (MB5919 Trans pFlp-Vim1 plasmid, efflux+); format: cell-based; settings: MB5919 Trans pFlp-Vim1 plasmid (MB 9861), OprD+
[8] = test system: Pseudomonas aeruginosa MB9862 (MB5890 trans pFlp-Vim1 plasmid, efflux−); format: cell-based; settings: MB 5890 trans pFlp-Vim1 plasmid (MB 9862), OprD+
[9] = test system: Klebsiella pneumoniae expressing VIM-1 (IHMA599644); assay: Antibiotic potentiation activity: synergistic concentration (MITC95) with imipenem; format: cell-based; settings: imipenem 1 μg/mL; lowest concentration inhibiting 95% of growth; 35° C., 22-24 hours
Method in brief: (§4)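 Clinical MBL-expressing strains diluted into 1.1× CAMHB were incubated with compound plus imipenem at 1 μg/mL for 22–24 h at 35 °C, then absorbance was read. MITC95 is the lowest compound concentration giving 95% growth inhibition in the presence of imipenem.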

[10] = test system: Escherichia coli expressing NDM-1 (CLB30016); assay: as above; format: cell-based; settings: imipenem 1 μg/mL; lowest concentration inhibiting 95% of growth; 35° C., 22-24 hours
Method in brief: as §4

[11] = test system: Serratia marcescens expressing IMP-1 (CL5741); assay: as above; format: cell-based; settings: imipenem 1 μg/mL; lowest concentration inhibiting 95% of growth; 35° C., 22-24 hours
Method in brief: as §4

NDM-1 = NDM-1 (Klebsiella pneumoniae, UniProt C7C422); assay: Enzyme activity: determination of IC50, fluorescence assay with CCF2-FA substrate (NDM-1); format: biochemical; settings: 1 pM enzyme, 1.25 μM CCF2-FA, 2 hours at 25° C.; read-out: NDM1 IC50
Chain of NDM-1 (C7C422 29-270, looked up, species assumed): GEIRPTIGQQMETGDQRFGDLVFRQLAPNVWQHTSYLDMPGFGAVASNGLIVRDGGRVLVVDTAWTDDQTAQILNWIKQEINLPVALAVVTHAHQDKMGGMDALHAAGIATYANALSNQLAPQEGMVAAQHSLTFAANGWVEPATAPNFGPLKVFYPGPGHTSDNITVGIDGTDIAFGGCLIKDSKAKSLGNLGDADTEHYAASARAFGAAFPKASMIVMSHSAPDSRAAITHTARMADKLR
Method in brief: (§5)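 In pH 7 phosphate buffer (100 mM) with 10 μM ZnSO4 and 0.005% Tween-20, CCF2-FA hydrolysis (1.25 μM) by 1 pM NDM-1, 2 pM IMP-1 or 30 pM VIM-1 was run 2 h at 25° C with inhibitor from 20 to 0.00063 μM. Ex 405/em 460 nm signal fitted to a 4-parameter curve for IC50.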

[12] = test system: P. aeruginosa MB9798 (efflux WT, IMP-1); assay: Efflux: concentration of MBL inhibitor restoring susceptibility to imipenem (MITC95), efflux+ strain; format: cell-based, Pseudomonas aeruginosa; settings: imipenem at 2 μg/mL in the presence of a class A, C, D serine β-lactamase inhibitor closely related to relebactam
Method in brief: (§6)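 Isogenic P. aeruginosa PAO1 strains, efflux+ and efflux−, transformed with IMP-1 plasmid, were tested by microbroth MIC with fixed imipenem, usually at CLSI breakpoint, plus fixed class A/C β-lactamase inhibitor against AmpC. MBL inhibitor was serially titrated; the concentration restoring susceptibility was recorded.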

[13] = test system: P. aeruginosa MB9799 (efflux mutant, IMP-1); assay: Efflux: concentration of MBL inhibitor restoring susceptibility to imipenem (MITC95), efflux− strain; format: cell-based, Pseudomonas aeruginosa; settings: imipenem at 2 μg/mL in the presence of a class A, C, D serine β-lactamase inhibitor closely related to relebactam
Method in brief: as §6

VIM-2 = VIM-2 (Escherichia coli, UniProt Q5U7L7); assay: Enzyme activity: determination of IC50 (VIM-2); format: biochemical; settings: read-out: VIM2 IC50
VIM-1 = VIM-1 (Pseudomonas aeruginosa, UniProt A0A0F7KYQ8); assay: Enzyme activity: determination of IC50, fluorescence assay with CCF2-FA substrate (VIM-1); format: biochemical; settings: 30 pM enzyme, 1.25 μM CCF2-FA, 2 hours at 25° C.; read-out: VIM1 IC50
Method in brief: as §5

IMP-1 = IMP-1 (Serratia marcescens, UniProt P52699); assay: Enzyme activity: determination of IC50, fluorescence assay with CCF2-FA substrate (IMP-1); format: biochemical; settings: 2 pM enzyme, 1.25 μM CCF2-FA, 2 hours at 25° C.; read-out: IMP1 IC50
Chain of IMP-1 (P52699 19-246, looked up, species assumed): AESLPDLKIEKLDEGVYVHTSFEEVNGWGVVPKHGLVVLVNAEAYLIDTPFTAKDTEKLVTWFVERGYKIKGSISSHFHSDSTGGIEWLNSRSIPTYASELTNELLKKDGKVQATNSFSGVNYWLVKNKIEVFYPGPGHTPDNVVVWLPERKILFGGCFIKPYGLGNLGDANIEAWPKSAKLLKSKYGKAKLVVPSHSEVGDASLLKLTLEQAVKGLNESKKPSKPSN
Method in brief: as §5

Row | SMILES | MIC [1] [µg/mL] | MIC [2] [µg/mL] | MIC [3] [µg/mL] | MIC [4] [µg/mL] | MIC [5] [µg/mL] | MIC [6] [µg/mL] | MIC [7] [µg/mL] | MIC [8] [µg/mL] | IHMA599644 K.pneumoniae MITC95 uM VIM [9] [µM] | CLB30016 E.coli MITC95 NDM [10] [µM] | CL5741 S.marcescens MITC95 uM IMP [11] [µM] | IC50 (NDM-1) [nM] | MB9798 MITC95 P. aeruginosa Efflux WT [12] [µM] | MB9799 MITC95 P. aeruginosa Efflux Mutant [13] [µM] | IC50 (VIM-2) [nM] | IC50 (VIM-1) [nM] | IC50 (IMP-1) [nM]
1 | CC[C@H]1OC(=O)[C@H](C)[C@@H](O[C@H]2C[C@@](C)(OC)[C@@H](O)[C@H](C)O2)[C@H](C)[C@@H](O[C@@H]2O[C@H](C)C[C@H](N(C)C)[C@H]2O)[C@](C)(O)C[C@@H](C)CN(C)[C@H](C)[C@@H](O)[C@]1(C)O [Azithromycin] | 1 (≈ 1.34 µM) | 2 (≈ 2.67 µM) | 16 (≈ 21.4 µM) | 1 (≈ 1.34 µM) | 2 (≈ 2.67 µM) | 32 (≈ 42.7 µM) | 32 (≈ 42.7 µM) | 1 (≈ 1.34 µM) | – | – | – | – | – | – | – | – | –
2 | CC(C)(O/N=C(\C(=O)N[C@@H]1C(=O)N2C(C(=O)[O-])=C(C[n+]3ccccc3)CS[C@H]12)c1csc(N)n1)C(=O)O [CAZ, ceftazidime] | 64 (≈ 117 µM) | 256 (≈ 468 µM) | 1 (≈ 1.83 µM) | 0.5 (≈ 0.915 µM) | 256 (≈ 468 µM) | 128 (≈ 234 µM) | > 256 | > 256 | – | – | – | – | – | – | – | – | –
3 | C[C@@H](O)[C@H]1C(=O)N2C(C(=O)O)=C(S[C@@H]3CN[C@H](C(=O)N(C)C)C3)[C@H](C)[C@H]12 [Meropenem] | 32 (≈ 83.4 µM) | 64 (≈ 167 µM) | 2 (≈ 5.22 µM) | 0.5 (≈ 1.3 µM) | > 64 | > 64 | > 64 | 64 (≈ 167 µM) | – | – | – | – | – | – | – | – | –
4 | O=C(N[C@H](CO)[C@H](O)c1ccc([N+](=O)[O-])cc1)C(Cl)Cl [Chloramphenicol] | 1 (≈ 3.09 µM) | 1 (≈ 3.09 µM) | > 64 | 1 (≈ 3.09 µM) | > 64 | > 64 | > 64 | 2 (≈ 6.19 µM) | – | – | – | – | – | – | – | – | –
5 | C[C@@H](O)[C@H]1C(=O)N2C(C(=O)O)=C(SCCN=CN)C[C@H]12 [Imipenem] | 32 (≈ 107 µM) | 32 (≈ 107 µM) | 4 (≈ 13.4 µM) | 2 (≈ 6.68 µM) | 64 (≈ 214 µM) | > 64 | > 64 | 64 (≈ 214 µM) | – | – | – | – | – | – | – | – | –
6 | CCN1CCN(C(=O)N[C@@H](C(=O)N[C@@H]2C(=O)N3[C@@H]2SC(C)(C)[C@@H]3C(=O)O)c2ccccc2)C(=O)C1=O [Pipercillin] | 128 (≈ 247 µM) | 4 (≈ 7.73 µM) | 2 (≈ 3.86 µM) | 1 (≈ 1.93 µM) | 4 (≈ 7.73 µM) | > 256 | > 256 | 128 (≈ 247 µM) | – | – | – | – | – | – | – | – | –
7 | NC[C@H](CO)NS(=O)(=O)c1ccc(N2CCCn3ccnc32)c(-c2nnn[nH]2)c1S(N)(=O)=O [Example 15, (R)-N1-(1-amino-3-hydroxypropan-2-yl)-4-(6,7-dihydroimidazo[1,2-a]pyrimidin-8(5H)-yl)-3-(1H-tetrazol-5-yl)benzene-1,2-disulfonamide] | – | – | – | – | – | – | – | – | 1.56 | 0.20 | 0.39 | 2.35 | 3.13 | 0.78 | 2.66 | 1 | 8.9
